From publication PMC9774391 (ACS Omega, 2022)

Experiments:
AChE = AChE (Homo sapiens, UniProt P22303); assay: biochemical; settings: for inhibition at 1000 µM: 10^–3 M; for inhibition at 100 µM: 10^–4 M; for inhibition at 10 µM: 10^–5 M; for inhibition at 1 µM: 10^–6 M; for inhibition at 0.1 µM: 10^–7 M; for inhibition at 0.01 µM: 10^–8 M; for inhibition at 0.001 µM: 10^–9 M
Procedure: (§1) According to the modified Ellman approach outlined in our team’s earlier work, the AChE and BChE inhibitory activities of the obtained compounds were evaluated.[18]−[21]

BChE = BChE (Homo sapiens, UniProt P06276); assay: biochemical; settings: for inhibition at 1000 µM: 10^–3 M; for inhibition at 100 µM: 10^–4 M
Procedure: as §1

MAO-A = molecular target: T1, MAO-A (Homo sapiens, UniProt P21397); assay: In vitro MAO-A inhibition assay (fluorometric); assay type: biochemical; settings: for inhibition at 1000 µM: 10^–3 M; for inhibition at 100 µM: 10^–4 M
T1 sequence (P21397 1-527): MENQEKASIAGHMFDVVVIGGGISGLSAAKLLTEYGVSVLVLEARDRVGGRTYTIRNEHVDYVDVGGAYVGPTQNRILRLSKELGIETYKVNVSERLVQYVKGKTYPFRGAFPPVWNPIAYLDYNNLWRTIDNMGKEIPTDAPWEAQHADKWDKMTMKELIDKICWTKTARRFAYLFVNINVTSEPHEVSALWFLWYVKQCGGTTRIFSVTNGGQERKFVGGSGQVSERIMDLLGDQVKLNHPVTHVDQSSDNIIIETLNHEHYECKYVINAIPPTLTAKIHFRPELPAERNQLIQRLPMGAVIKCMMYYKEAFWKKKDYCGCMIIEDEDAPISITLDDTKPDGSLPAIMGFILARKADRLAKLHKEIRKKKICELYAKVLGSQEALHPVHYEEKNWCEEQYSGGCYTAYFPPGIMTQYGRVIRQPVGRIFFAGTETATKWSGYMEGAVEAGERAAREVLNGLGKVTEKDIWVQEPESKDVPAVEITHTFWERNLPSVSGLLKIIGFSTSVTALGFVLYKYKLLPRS

MAO-B = molecular target: T2, MAO-B (Homo sapiens, UniProt P27338); assay: In vitro MAO-B inhibition assay (fluorometric); assay type: biochemical; settings: for inhibition at 1000 µM: 10^–3 M; for inhibition at 100 µM: 10^–4 M; for inhibition at 10 µM: 10^–5 M; for inhibition at 1 µM: 10^–6 M; for inhibition at 0.1 µM: 10^–7 M; for inhibition at 0.01 µM: 10^–8 M; for inhibition at 0.001 µM: 10^–9 M
T2 sequence (P27338 1-520): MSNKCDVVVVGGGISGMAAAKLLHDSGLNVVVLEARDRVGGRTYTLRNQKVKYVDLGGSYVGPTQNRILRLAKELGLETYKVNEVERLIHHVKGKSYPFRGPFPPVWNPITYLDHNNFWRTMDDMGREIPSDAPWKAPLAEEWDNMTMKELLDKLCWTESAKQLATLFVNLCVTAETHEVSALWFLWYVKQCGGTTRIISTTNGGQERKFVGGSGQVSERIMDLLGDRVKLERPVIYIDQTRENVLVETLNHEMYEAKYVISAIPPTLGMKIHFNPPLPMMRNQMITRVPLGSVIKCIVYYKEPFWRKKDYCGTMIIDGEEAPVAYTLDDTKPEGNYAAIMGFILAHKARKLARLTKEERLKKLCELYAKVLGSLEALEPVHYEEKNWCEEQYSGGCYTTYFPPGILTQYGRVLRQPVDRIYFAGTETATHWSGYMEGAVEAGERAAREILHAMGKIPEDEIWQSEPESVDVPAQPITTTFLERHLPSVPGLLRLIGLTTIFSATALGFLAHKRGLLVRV

Cytotoxicity test (MTT) = assay type: cell-based; settings: NIH/3T3 mouse embryonic fibroblast cells (ATCC CRL-1658), NIH/3T3 mouse fibroblast healthy cell line
Procedure: The NIH/3T3 cells were incubated according to the manufacturer’s recommendations. In 96-well plates, NIH/3T3 cells were seeded at a density of 1 × 10^4 cells per well. The MTT test was conducted in line with the previously mentioned standards.[19],[22],[23],[28],[30]

Beta Amyloid 1–42 (Aβ42) = molecular target: T3, Beta Amyloid 1–42 (Aβ42) (Homo sapiens, UniProt P05067); assay: Beta Amyloid 1–42 (Aβ42) inhibitor screening assay; assay type: biochemical; settings: for inhibition at 100 µM: 10^–4 M
T3 construct: The Beta Amyloid 1–42 (Aβ42) Ligand Screening Assay kit; purchased BioVision, Milpitas, CA
Excerpt: The Beta Amyloid 1–42 (Aβ42) Ligand Screening Assay kit (BioVision, Milpitas, CA) technique based on the fluorometric approach served as the basis for the experimental process.[21],[28],[29]

[1] = DPPH free-radical scavenging activity assay; settings: serial dilution 10^–3–10^–9 M; read-out: IC50 on DPPH antioxidant activity
Procedure: This approach is based on evaluating the free-radical scavenging abilities of the stable 1,1-diphenyl-2-picrylhydrazyl (DPPH) radical. To create the DPHH solution, 9.86 mg of DPPH was weighed and diluted to 25 mL with methanol. The test wells were then filled with 100 μL of the DPPH solution and 100 μL of the test solutions. Only 200 μL of methanol was used for the blank reading, while the control reading required the usage of 100 μL each of methanol and the DPPH solution. Following incubation, a spectrophotometric measurement at 517 nm was carried out.[26],[27]

[2] = read-out: % β-amyloid plaque inhibition

Sequence of BChE (P06276 29-602): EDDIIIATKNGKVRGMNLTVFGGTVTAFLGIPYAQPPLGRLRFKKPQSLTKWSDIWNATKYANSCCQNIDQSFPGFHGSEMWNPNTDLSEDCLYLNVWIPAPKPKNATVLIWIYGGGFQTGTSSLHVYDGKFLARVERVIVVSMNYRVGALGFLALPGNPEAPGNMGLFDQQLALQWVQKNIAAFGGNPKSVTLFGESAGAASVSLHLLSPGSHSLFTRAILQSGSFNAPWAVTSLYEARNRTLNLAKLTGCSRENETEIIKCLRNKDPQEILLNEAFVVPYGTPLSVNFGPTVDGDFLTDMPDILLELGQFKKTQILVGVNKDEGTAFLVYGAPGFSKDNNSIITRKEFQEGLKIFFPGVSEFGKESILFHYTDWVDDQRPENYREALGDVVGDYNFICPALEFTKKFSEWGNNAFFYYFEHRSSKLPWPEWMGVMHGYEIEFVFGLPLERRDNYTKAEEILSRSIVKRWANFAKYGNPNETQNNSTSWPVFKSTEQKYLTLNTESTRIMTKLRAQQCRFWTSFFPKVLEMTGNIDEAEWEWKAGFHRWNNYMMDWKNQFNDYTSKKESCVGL
Sequence of AChE (P22303 32-614): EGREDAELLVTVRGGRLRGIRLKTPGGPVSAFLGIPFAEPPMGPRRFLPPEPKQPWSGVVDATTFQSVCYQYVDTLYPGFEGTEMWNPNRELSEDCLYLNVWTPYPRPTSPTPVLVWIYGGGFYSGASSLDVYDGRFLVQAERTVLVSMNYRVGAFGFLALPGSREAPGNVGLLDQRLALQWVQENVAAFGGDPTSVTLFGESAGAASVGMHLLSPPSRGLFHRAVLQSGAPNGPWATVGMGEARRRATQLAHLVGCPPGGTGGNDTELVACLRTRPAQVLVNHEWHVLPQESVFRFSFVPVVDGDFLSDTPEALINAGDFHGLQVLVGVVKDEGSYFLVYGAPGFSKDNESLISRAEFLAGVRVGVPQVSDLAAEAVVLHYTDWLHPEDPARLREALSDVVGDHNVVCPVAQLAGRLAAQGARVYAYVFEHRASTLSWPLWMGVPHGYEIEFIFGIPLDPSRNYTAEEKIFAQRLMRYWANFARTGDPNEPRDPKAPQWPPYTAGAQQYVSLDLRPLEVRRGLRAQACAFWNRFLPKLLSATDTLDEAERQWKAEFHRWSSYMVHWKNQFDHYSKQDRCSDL
T3 sequence (P05067 672-713 limits assumed): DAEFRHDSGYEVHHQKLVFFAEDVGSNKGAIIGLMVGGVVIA

Structure (SMILES)	IC50 (AChE)	inhibition at 1000 µM (AChE)	inhibition at 100 µM (AChE)	inhibition at 10 µM (AChE)	inhibition at 1 µM (AChE)	inhibition at 0.1 µM (AChE)	inhibition at 0.01 µM (AChE)	inhibition at 0.001 µM (AChE)	inhibition at 1000 µM (BChE)	inhibition at 100 µM (BChE)	inhibition at 1000 µM (MAO-A)	inhibition at 100 µM (MAO-A)	IC50 (MAO-B)	inhibition at 1000 µM (MAO-B)	inhibition at 100 µM (MAO-B)	inhibition at 10 µM (MAO-B)	inhibition at 1 µM (MAO-B)	inhibition at 0.1 µM (MAO-B)	inhibition at 0.01 µM (MAO-B)	inhibition at 0.001 µM (MAO-B)	also measured
COc1ccc2c(c1)C(=O)/C(=C/c1ccc(NC(=O)CN(C)CCCN(C)C)cc1)C2 [D38]	47.3 ± 1.6 nM	93.2 ± 1.72%	90.5 ± 1.3%	81.6 ± 1.17%	74 ± 0.956%	68.2 ± 0.862%	37.2 ± 0.562%	19.7 ± 0.711%	93.3 ± 1.37%	90.6 ± 1.3%	95 ± 2.39%	24.1 ± 0.853%	35.9 ± 1.3 nM	94.8 ± 1.43%	88.6 ± 1.38%	84.6 ± 1.58%	78.2 ± 1.41%	62.5 ± 0.925%	42.3 ± 0.623%	20.7 ± 0.318%	IC50 (BChE): 78.2 ± 2.9 nM; inhibition at 10 µM (BChE; 10^–5 M): 85.4 ± 1.3%; inhibition at 1 µM (BChE; 10^–6 M): 78.6 ± 1.11%; inhibition at 0.1 µM (BChE; 10^–7 M): 58.7 ± 0.952%; inhibition at 0.01 µM (BChE; 10^–8 M): 28.8 ± 0.714%; inhibition at 0.001 µM (BChE; 10^–9 M): 18.4 ± 0.633%; IC50 (Cytotoxicity test (MTT)): 6810 ± 118 nM; inhibition at 100 µM (Beta Amyloid 1–42 (Aβ42); [2]): > 50%; IC50 [1]: 190 ± 7.8 nM
CCCN(C)CC(=O)Nc1ccc(/C=C2\Cc3cc(OC)c(OC)cc3C2=O)cc1 [D30]	25.7 ± 0.9 nM	98.2 ± 1.37%	96.6 ± 1.28%	91.8 ± 1.21%	88.3 ± 1.1%	74.3 ± 1.05%	36.6 ± 0.627%	16.4 ± 0.421%	99.6 ± 2.02%	46.43 ± 0.408%	74.1 ± 2.09%	28.3 ± 1.08%	45.6 ± 1.7 nM	97.5 ± 1.39%	90.2 ± 1.47%	82.5 ± 1.38%	74.6 ± 1.29%	66 ± 0.966%	38.1 ± 0.458%	19.8 ± 0.632%	IC50 (Cytotoxicity test (MTT)): 601 ± 14.5 nM; inhibition at 1000 µM (Beta Amyloid 1–42 (Aβ42); 10^–3 M, read-out: % β-amyloid plaque inhibition): 89.6 ± 1.86%; inhibition at 100 µM (Beta Amyloid 1–42 (Aβ42); [2]): 81.5 ± 1.96%; IC50 (Beta Amyloid 1–42 (Aβ42); read-out: IC50 on β-amyloid plaque aggregation): 178 ± 7.4 nM; IC50 [1]: 246 ± 11 nM
